In patent US7311914B2, “MAGE-A4 antigenic peptides and uses thereof” (Ludwig Institute for Cancer Research, priority 2002, dated 2007):

Test system: CTL F2
Assay: Peptide recognition assay: 51Cr release lysis by CTL F2 of peptide-pulsed autologous EBV-B cells
Format: cell-based, human
Conditions: for lysis by CTL F2 of autologous EBV-B cells incubated with peptide (first screening of 16 amino-acid long peptides, FIG. 3A): 1 μg/ml of each peptide, E:T ratio 5:1, chromium release after 4 h; for EC50: CTL F2, E:T 5:1, 4 h chromium release (FIG. 3B), read-out: peptide concentration giving half maximal lysis of autologous EBV-B target cells; for recognition by CTL F2 of peptides of different lengths (peptide titration, FIG. 3B): autologous EBV-B targets, 3-fold peptide dilutions, HPLC purified peptides; for recognition by CTL F2 of peptides of different lengths (peptide titration, FIG. 3B) / recognition by CTL F2 of targets pulsed with peptides modified at the C-terminus (FIG. 3C): E:T 5:1, 4 h; for recognition by CTL F2 of targets pulsed with peptides modified at the C-terminus (FIG. 3C): very high and most probably not physiological concentration of peptide

FPVIFGKASESLKMIF (listed as Homo sapiens) [16-mer MAGE-A4 peptide, amino acids 148-163]
lysis by CTL F2 of autologous EBV-B cells incubated with peptide (first screening of 16 amino-acid long peptides, FIG. 3A): scored positive

SESLKMIF
EC50: 1 nM | recognition by CTL F2 of peptides of different lengths (peptide titration, FIG. 3B): scored positive

SESLKMIFG (listed as Homo sapiens) [MAGE-A4 nonapeptide]
recognition by CTL F2 of peptides of different lengths (peptide titration, FIG. 3B): not recognized

SESLKMIFGI
EC50: 1 nM | recognition by CTL F2 of peptides of different lengths (peptide titration, FIG. 3B): scored positive

SESLKMIFGIDVKEVD (listed as Homo sapiens) [16-mer MAGE-A4 peptide, amino acids 156-171]
lysis by CTL F2 of autologous EBV-B cells incubated with peptide (first screening of 16 amino-acid long peptides, FIG. 3A): scored positive

SESLKMIFI (listed as Homo sapiens) [nonapeptide with C-terminal G replaced by I]
recognition by CTL F2 of targets pulsed with peptides modified at the C-terminus (FIG. 3C): recognized

SESLKMIFL (listed as Homo sapiens) [nonapeptide with C-terminal G replaced by L]
recognition by CTL F2 of targets pulsed with peptides modified at the C-terminus (FIG. 3C): recognized
